Measured values: ChEMBL document CHEMBL5214906, “Novel Antiplasmodial Compounds Leveraged with Multistage Potency against the Parasite Plasmodium falciparum: In Vitro and In Vivo Evaluations and Pharmacokinetic Studies” (J Med Chem, 2021)
Calls of active or inactive are those of the source. The rule behind the calls is not given here.

Legend:
[1] = Cytotoxicity against human HepG2 cells assessed as reduction in cell viability incubated for 48 hrs by MTT assay; format: toxicity, cell-based; conditions: read-out: TC50
[2] = test system: Plasmodium falciparum; assay: Antiplasmodial activity against Plasmodium falciparum 3D7 infected in human red blood cells assessed as inhibition of parasitemia incubated for 48 hrs by giemsa staining based light microscopic analysis; format: functional, organism-based, Red blood cell; conditions: 3D7, Erythrocyte
[3] = Therapeutic index, ratio of TC50 for cytotoxicity against human HepG2 cells to IC50 for antiplasmodial activity against Plasmodium falciparum 3D7 infected in human red blood cells; format: toxicity, cell-based; conditions: read-out: TI
[4] = test system: Plasmodium falciparum; assay: Inhibition of Plasmodium falciparum plasmepsin X […] at 1 uM using DABCYL-G-PSFVEAPVRGG-EDANS as substrate by fluorescence based assay relative to control
[5] = test system: Plasmodium falciparum; assay: Resistance index, ratio of IC50 for antiplasmodial activity against chloroquine-resistant Plasmodium falciparum RKL-9 to IC50 for antiplasmodial activity against Plasmodium falciparum 3D7; format: functional
[6] = test system: Plasmodium falciparum; assay: Antiplasmodial activity against chloroquine resistant Plasmodium falciparum RKL-9 infected in human erythrocytes assessed as inhibition of parasitemia by SYBR green-I fluorescence based spectrofluorometric analysis; format: functional, organism-based; conditions: RKL-9, Erythrocyte
[7] = test system: Plasmodium falciparum; assay: Antiplasmodial activity against Plasmodium falciparum 3D7 infected in human erythrocytes assessed as delay in maturation of rings at 1 to 10 uM measured for 56 hrs by giemsa staining based microscopic analysis; format: functional, organism-based; conditions: Erythrocyte, dose 1-10 µM
[8] = test system: Plasmodium falciparum; assay: Antiplasmodial activity against Plasmodium falciparum 3D7 infected in human erythrocytes assessed as pyknotic trophozoites development at 1 to 10 uM measured for 56 hrs by giemsa staining based microscopic analysis; format: functional, organism-based; conditions: Erythrocyte, dose 1-10 µM
[9] = test system: Plasmodium falciparum; assay: Induction of mitochondrial membrane loss in Plasmodium falciparum 3D7 assessed as reduction in red-green ratio at IC50 concentration incubated for 3 hrs by JC-1 staining based spectrofluorometric analysis; format: functional
[10] = test system: Plasmodium berghei; assay: In vivo antimalarial activity against Plasmodium berghei ANKA strain infected in C57BL/6 mouse assessed as increase in mean survival time at 30 mg/kg, ip administered for 4 days and measured upto 30 days (reference value: 13 days); format: functional; conditions: time <= 30 day
[11] = test system: Plasmodium berghei; assay: Antiplasmodial activity against firefly luciferase-expressing Plasmodium berghei liver stage infected in human Huh-7 cells assessed as inhibition of parasite growth preincubated with cells for 1 hrs followed by parasite infection and […] by bioluminescence assay; format: functional, organism-based
[12] = test system: Erythrocyte; assay: Hemolytic activity against human red blood cells upto 1600 uM incubated for 1 hrs by hemolysis assay; format: toxicity, cell-based
[13] = test system: Plasmodium falciparum; assay: Antiplasmodial activity against Plasmodium falciparum 3D7 infected in human erythrocytes assessed as transition from ring to trophozoite at 1 to 10 uM measured for 56 hrs by giemsa staining based microscopic analysis; format: functional, organism-based; conditions: Erythrocyte, dose 1-10 µM
[14] = test system: Plasmodium falciparum; assay: Antiplasmodial activity against Plasmodium falciparum 3D7 infected in human erythrocytes assessed as accumulation of parasite growth at late trophozoite stage at 1 to 10 uM measured after 56 hrs post-treatment by giemsa staining based microscopic analysis; format: functional, organism-based; conditions: Erythrocyte, dose 1-10 µM
[15] = test system: Plasmodium berghei; assay: In vivo antimalarial activity against Plasmodium berghei ANKA infected in BALB/c mouse assessed as reduction in parasitemia at 50 mg/kg, ip administered for 4 consecutive days and measured on day 8 post-infection by geimsa staining based microscopic analysis relative to control; format: functional; parameters: scale not given: the % may be the effect or the level left; conditions: time 8 day
[16] = test system: Plasmodium berghei; assay: In vivo antimalarial activity against Plasmodium berghei ANKA strain infected in BALB/c mouse assessed as increase in mean survival time at 50 mg/kg, ip administered for 4 days and measured upto 30 days (reference value: 13 days); format: functional; conditions: time <= 30 day
[17] = Inhibition of Plasmodium falciparum Plasmepsin X assessed as inhibition constant using DABCYL-G-PSFVEAPVRGG-EDANS as substrate by fluorescence based assay relative to control

Row | IC50 [2] [µM] | inhibition [4] [%] | SMILES | CC50 at 48 h [1] [µM] | selectivity ratio [3] | Ratio IC50 [5] | IC50 [6] [µM] | Ratio [9] | Activity [12] | other results
1 | > 5 | 6.85 | O=C(Cc1ccccc1)N[C@@H](Cc1ccccc1)[C@@H](O)CN1CCN(Cc2ccccc2)CC1 | 305 | < 61 |  |  |  |  | 
2 | 1 | 34 | CN1CCN(c2ccc(C(=O)N[C@@H](Cc3ccccc3)[C@@H](O)CN3CCN(Cc4ccccc4)CC3)cc2)CC1 | 189 | 189 |  |  |  |  | 
3 |  |  | C[C@H]1[C@H](OC(=O)CCC(=O)O)O[C@@H]2O[C@@]3(C)CC[C@H]4[C@H](C)CC[C@@H]1[C@@]24OO3 [ARTESUNATE] |  |  |  |  |  |  | MST [10]: 24 days
4 | 0.2 | 24.5 | Cc1ccc(OCC(=O)N[C@@H](Cc2ccccc2)[C@@H](O)CN2CCN(Cc3ccccc3)CC2)cc1 | 200 | 1000 |  |  |  |  | 
5 | 0.51 | 21.5 | O=C(CCc1ccc(Br)cc1)N[C@@H](Cc1ccccc1)[C@@H](O)CN1CCN(Cc2ccccc2)CC1 | 129 | 252 |  |  |  |  | IC50 [11]: 3.97 µM
6 | 0.95 | 15.5 | CCC(C(=O)N[C@@H](Cc1ccccc1)[C@@H](O)CN1CCN(Cc2ccccc2)CC1)c1ccccc1 (stereo not given in full) | 1350 | 1420 |  |  |  |  | 
7 | 0.25 | 11.7 | O=C(N[C@@H](Cc1ccccc1)[C@@H](O)CN1CCN(Cc2ccccc2)CC1)c1cnc2ccccc2c1 | 100 | 400 |  |  |  | Non-Toxic | 
8 | 1.1 | 13.7 | O=C(Cc1cccc(C(F)(F)F)c1)N[C@@H](Cc1ccccc1)[C@@H](O)CN1CCN(Cc2ccccc2)CC1 | 990 | 900 |  |  |  |  | 
9 | 0.97 | 38.6 | CN1CCN(Cc2ccc(C(=O)N[C@@H](Cc3ccccc3)[C@@H](O)CN3CCN(Cc4ccccc4)CC3)cc2)CC1 | 860 | 887 |  |  |  |  | Ki [17]: 0.91 µM

Row | SMILES | IC50 [2] [µM] | inhibition [4] [%] | CC50 at 48 h [1] [µM] | selectivity ratio [3] | Ratio IC50 [5] | IC50 [6] [µM] | Ratio [9] | Activity [12] | other results
10 | O=C(N[C@@H](Cc1ccccc1)[C@@H](O)CN1CCN(Cc2ccccc2)CC1)c1ccc(F)cc1 | 0.41 | 0.92 | 267 | 636 | 1.73 | 0.72 | 3.73 |  | Activity [7]: Active; Activity [8]: Active
11 | O=C(N[C@@H](Cc1ccccc1)[C@@H](O)CN1CCN(Cc2ccccc2)CC1)c1ccc(N2CCOCC2)cc1 | 0.21 | 28.4 | 317 | 1450 | 3.93 | 0.86 | 3.48 | Non-Toxic | Activity [13]: Active; Activity [7]: Active; Activity [8]: Active; Activity [14]: Active; Activity [15]: 50%; MST [16]: 15 days
12 | O=C(N[C@@H](Cc1ccccc1)[C@@H](O)CN1CCN(Cc2ccccc2)CC1)c1cnccn1 | 1.26 | 21 | 1000 | 791 | 1 | 1.26 | 4.07 | Non-Toxic | 
13 | Cc1cnc(C(=O)N[C@@H](Cc2ccccc2)[C@@H](O)CN2CCN(Cc3ccccc3)CC2)cn1 | 1.22 | 8.79 | 285 | 232 | 0.65 | 0.79 | 4.28 | Non-Toxic | 
